The source of these data is ChEMBL document CHEMBL3044530, “A simple synthesis of trans-3,4,5-trimethoxycinnamamides and evaluation of their biologic activity” (2013).

Molecules are shown by their SMILES. Active and inactive are the calls of the source. The calls are words filed in the database; no cut-off is given here.

What all share (assay type): functional
Test [1] deals with Mus musculus. The experiment in a line: Antinarcotic activity in morphine-dependent C57BL/6 Mus musculus (mouse) assessed as decrease in naloxane-induced jumping frquency at 20 mg/kg, ip administered QD at 30 min prior to morphine-injection for 7 days followed by naloxane-challenge at 6 hr after last morphine-injection relative to control. Also noted: scale not given: the % may be the effect or the level left.

Test [2] relates to Cortical neurone. The experiment in a line: Neuroprotective activity in ICR Mus musculus (mouse) cortical neurons assessed as protection against glutamate-induced toxicity at 5 to 20 uM after 24 hr by LDH assay.
The subject of test [3] is Radical scavenging activity. The experiment in a line: Antioxidant activity assessed as DPPH radical scavenging activity at 1 mM after 25 min by spectrophotometric analysis.

Turning to `COc1cc(/C=C/C(=O)NCCO)cc(OC)c1OC`, the Activity in test [1] (route intraperitoneal) was 80%; in test [3], above 20%. The result in test [2] was Active.

With `COc1cc(/C=C/C(=O)NCCCN2CCCC2=O)cc(OC)c1OC`, the Activity was 80% in test [1] (route intraperitoneal) and above 20% in test [3].

Consider `COc1cc(/C=C/C(=O)N2CCN(C(=O)c3ccccc3)CC2)cc(OC)c1OC`, for which the Activity is 80% in test [1] (route intraperitoneal) and above 20% in test [3]. Moreover, in test [2], the result was Active.

Take `COc1cc(/C=C/C(=O)N2CCSCC2)cc(OC)c1OC`: the Activity is 80% in test [1] (route intraperitoneal) and above 20% in test [3]. In addition, in test [2], the outcome was Active.

On to `COc1cc(/C=C/C(=O)N2CCOCC2)cc(OC)c1OC`, for which the Activity in test [1] (route intraperitoneal) is 80%; in test [3], above 20%.

Take `COc1cc(/C=C/C(=O)O)cc(OC)c1OC`: in test [1], the outcome was Active.

In the case of `COc1cc(/C=C/C(=O)N2CCN(C(=O)/C=C/c3cc(OC)c(OC)c(OC)c3)CC2)cc(OC)c1OC`, the Activity in test [1] (route intraperitoneal) was found to be 80%.
